From patent publication US20260226493A1, “HERBICIDE RESISTANT PLANTS” (SYNGENTA CROP PROTECTION AG, priority 2023, published 2026)

Tests used:
[1] = target: T1, Arabidopsis thaliana BioDA variant enzymes (Arabidopsis thaliana, UniProt B0F481); assay: biochemical
T1 construct: with the predicted N-terminal mitochondrial transit peptide removed; 6xHis-tag (N); thrombin cleavage site (N); made in house; host or cells: E. coli BL21 (DE3) bioA
Experimental: (§1) These plasmids were then expressed in E. coli BL21 (DE3) bioA with 50 μg/mL kanamycin and 25 μg/mL chloramphenicol selection. Overnight cultures grown at 37° C. were used to inoculate 8×500 mL AIM in shake flasks at a ratio of 1:100. Cultures were grown at 37° C., 200 rpm for 3.5 hours and then overnight at 20° C. Cells were harvested by centrifugation for 30 minutes at 10 000 g. Cells were stored at −80° C. until extraction. 30 g of cell pellet from was thawed in 120 mL of IMAC buffer A (20 mM HEPES pH7.5, 25 mM imidazole, 500 mM sodium chloride, 0.15 mM pyridoxal phosphate, 0.5 mM TCEP, 1× complete Protease Inhibitor Tablet (Roche)). The resuspension was passed through a cell disrupter at 18 000 PSI and centrifuged at 50 000 g for 25 minutes at 4° C. The His-tagged BIO3-BIO1 protein was purified from the extract supernatant on an AKTA avant chromatography system (Cytiva) using a HisTrap FF column and eluted in IMAC buffer B ((20 mM HEPES pH7.5, 500 mM imidazole, 500 mM sodium chloride, 0.15 mM pyridoxal phosphate, 0.5 mM TCEP) followed by SEC using a HiLoad 26/60 Superdex200 column in SEC buffer (25 mM HEPES pH7.5, 150 mM sodium chloride, 0.15 mM pyridoxal phosphate, 0.5 mM TCEP). Protein concentration was measured and calculated using the absorbance at 280 nm. Extracts were diluted 1 in 4 and 10 uL was analysed by SDS PAGE.
(§2) To measure BIO3-BIO1 mutant enzyme activity in the presence of herbicide, herbicides were incubated with 20 μL of enzyme mix (100 mM EPPS pH 8.6, 0.1 mM pyridoxal phosphate, 0.1 mg/mL BSA, 50 nM BIO3-BIO1 enzyme) for 10 minutes at 20° C. in a well of a 96-well half-area black plate, followed by the addition of 20 μL of substrate mix (final concentration of 100 mM EPPS pH 8.6, 0.1 mM pyridoxal phosphate, 0.1 mg/mL BSA, 100 μM spermidine, 20 μM KAPA, 100 mM NaCO3) and further incubation for 75 minutes at 20° C. The reaction was terminated by the addition of 50 μL of derivatisation mix (final concentration of 250 mM borate NaOH pH 9.4, 3.6 mM o-phthalaldehyde, 7 mM β-mercaptoethanol, 17% (v/v) ethanol, 3.6% (v/v) methanol). The fluorescent product produced by the reaction of DAPA with o-phthalaldehyde and 7 mM β-mercaptoethanol was measured at 470 nm after excitation at 410 nm.
(§3) For IC50 calculations, appropriate dose responses of compounds L, M, B, K and G were used. Calculated percentage inhibitions were then input into GraphPad Prism 7 and IC50s calculated using the non-linear regression (vs. normalised response) equation.

[2] = target: T2, Arabidopsis thaliana BioDA variant enzymes (Arabidopsis thaliana, UniProt B0F481, C388D); assay: biochemical
T2 construct: with the predicted N-terminal mitochondrial transit peptide removed; 6xHis-tag (N); thrombin cleavage site (N); made in house; host or cells: E. coli BL21 (DE3) bioA
Experimental: as §1, §2, §3

T2 sequence (B0F481 24-833 C388D): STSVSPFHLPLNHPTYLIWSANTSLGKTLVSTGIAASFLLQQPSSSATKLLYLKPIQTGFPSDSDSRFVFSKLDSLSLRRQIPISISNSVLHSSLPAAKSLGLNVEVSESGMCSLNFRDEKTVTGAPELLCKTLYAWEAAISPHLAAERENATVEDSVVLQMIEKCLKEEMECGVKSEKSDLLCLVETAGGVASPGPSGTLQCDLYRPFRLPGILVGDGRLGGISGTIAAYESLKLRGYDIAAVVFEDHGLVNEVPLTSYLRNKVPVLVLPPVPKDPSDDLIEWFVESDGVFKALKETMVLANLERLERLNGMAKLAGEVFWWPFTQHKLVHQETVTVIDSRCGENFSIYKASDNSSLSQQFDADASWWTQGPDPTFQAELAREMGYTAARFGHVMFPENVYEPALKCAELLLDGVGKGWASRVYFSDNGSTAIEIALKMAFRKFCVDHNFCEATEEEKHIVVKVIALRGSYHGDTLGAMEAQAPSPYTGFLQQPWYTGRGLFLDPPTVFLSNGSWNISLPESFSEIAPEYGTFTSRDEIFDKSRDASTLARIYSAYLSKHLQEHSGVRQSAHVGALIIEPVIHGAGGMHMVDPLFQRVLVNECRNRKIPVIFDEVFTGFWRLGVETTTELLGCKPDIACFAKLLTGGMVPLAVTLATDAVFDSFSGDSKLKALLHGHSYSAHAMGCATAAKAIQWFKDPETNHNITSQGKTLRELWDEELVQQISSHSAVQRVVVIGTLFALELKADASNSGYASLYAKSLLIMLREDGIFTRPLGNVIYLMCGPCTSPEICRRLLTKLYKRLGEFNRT

Row | Compound | IC50 [1] [µM] | IC50 [2] [µM]
1 | O=C(O)CC1CCC(=O)N1Cc1ccc(F)c(F)c1F (stereo not shown) [Compound K, 2-[5-oxo-1-[(2,3,4-trifluorophenyl)methyl]pyrrolidin-2-yl]acetic acid] | 25 | 386
2 | O=C(O)CC1CCC(=O)N1Cc1cccc(F)c1F (stereo not shown) [Compound G, 2-[1-[(2,3-difluorophenyl)methyl]-5-oxo-pyrrolidin-2-yl]acetic acid] | 89 | 361
